Starred links: 1 amine or outer side, 2 acyl side, 3 side chain; linkers in the order of their positions; H or OH if unused. Non-standard residues stand in square brackets, D forms with d. Residues, ends and D or L forms follow the SMILES beside them. *: point of attachment. Azetidine3carboxylic = O=C(C1CN([*:1])C1)[*:2]; Pyrrolidine3carbonyl(3S) = O=C([C@H]1CCNC1)*; dBta = N[C@H](Cc1csc2ccccc12)C(=O)O; dTle = CC(C)(C)[C@@H](N)C(=O)O; Ac4c(3-oxa) = NC1(C(=O)O)COC1; Tle = CC(C)(C)[C@H](N)C(=O)O; X1 = N[C@H]1CCC[C@H]1C(=O)*; X3 = NCC1(C(=O)*)CCC1
Assays:
GHSR-1a = GHSR-1a (Homo sapiens (Human), UniProt Q92847); experiment: Agonistic activity for GHSR-1a, FLIPR calcium assay; type: cell-based; conditions: agonist activity assay, Flp In-CHO-GHSR Stable Pool cells, FLIPR calcium 6 kit; read-out: The activity (IC50) of polypeptide compounds for GHSR-1a
Chain of GHSR-1a (Q92847 whole entry): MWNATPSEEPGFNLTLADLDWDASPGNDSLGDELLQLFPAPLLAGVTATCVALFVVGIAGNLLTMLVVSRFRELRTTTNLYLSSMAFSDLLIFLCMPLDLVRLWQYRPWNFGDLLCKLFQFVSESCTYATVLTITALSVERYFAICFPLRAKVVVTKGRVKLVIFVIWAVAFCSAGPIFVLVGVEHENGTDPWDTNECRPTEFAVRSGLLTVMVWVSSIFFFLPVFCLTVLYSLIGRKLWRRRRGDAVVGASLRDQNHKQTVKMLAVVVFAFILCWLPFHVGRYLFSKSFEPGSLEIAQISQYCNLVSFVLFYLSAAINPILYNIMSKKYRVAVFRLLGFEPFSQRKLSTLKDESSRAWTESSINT

CYP1A2 = CYP1A2 (Homo sapiens (Human), UniProt P05177); experiment: in vitro; type: in vitro ADME; conditions: microsomes; for IC50: 10 min
Chain of CYP1A2 (P05177 whole entry): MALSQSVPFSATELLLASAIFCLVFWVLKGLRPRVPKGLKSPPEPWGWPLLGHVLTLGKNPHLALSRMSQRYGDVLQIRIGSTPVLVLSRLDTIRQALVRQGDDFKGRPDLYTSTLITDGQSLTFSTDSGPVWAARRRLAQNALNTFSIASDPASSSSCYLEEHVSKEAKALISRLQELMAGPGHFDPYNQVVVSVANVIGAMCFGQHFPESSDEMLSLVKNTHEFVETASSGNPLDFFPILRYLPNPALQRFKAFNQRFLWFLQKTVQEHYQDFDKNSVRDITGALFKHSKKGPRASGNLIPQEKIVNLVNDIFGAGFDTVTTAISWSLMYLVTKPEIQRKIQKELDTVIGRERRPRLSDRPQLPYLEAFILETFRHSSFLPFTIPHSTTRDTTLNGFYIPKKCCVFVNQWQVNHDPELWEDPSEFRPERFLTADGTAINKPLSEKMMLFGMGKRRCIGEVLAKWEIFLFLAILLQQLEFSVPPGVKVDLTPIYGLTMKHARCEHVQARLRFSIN
Procedure: (§1) Human liver microsomes containing cytochrome P450 (0.253 mg/mL protein) were incubated with test compounds (0.05-50 μM), CYPs substrates (10 μM […], 5 μM diclofenac, 30 μM mephenytoin, 5 μM dextromethorphan hydrobromide and 2 μM midazolam) and 1.0 mM NADP at 37° C. for 10 min. Naphthoflavone, sulfaphenazole, N-3-benzylnirvanol, quinidine and ketoconazole were used as reference inhibitors.

CYP 2C19 = CYP 2C19 (Homo sapiens (Human), UniProt P33261); type: in vitro ADME; conditions: microsomes, 10 min
Chain of CYP 2C19 (P33261 whole entry): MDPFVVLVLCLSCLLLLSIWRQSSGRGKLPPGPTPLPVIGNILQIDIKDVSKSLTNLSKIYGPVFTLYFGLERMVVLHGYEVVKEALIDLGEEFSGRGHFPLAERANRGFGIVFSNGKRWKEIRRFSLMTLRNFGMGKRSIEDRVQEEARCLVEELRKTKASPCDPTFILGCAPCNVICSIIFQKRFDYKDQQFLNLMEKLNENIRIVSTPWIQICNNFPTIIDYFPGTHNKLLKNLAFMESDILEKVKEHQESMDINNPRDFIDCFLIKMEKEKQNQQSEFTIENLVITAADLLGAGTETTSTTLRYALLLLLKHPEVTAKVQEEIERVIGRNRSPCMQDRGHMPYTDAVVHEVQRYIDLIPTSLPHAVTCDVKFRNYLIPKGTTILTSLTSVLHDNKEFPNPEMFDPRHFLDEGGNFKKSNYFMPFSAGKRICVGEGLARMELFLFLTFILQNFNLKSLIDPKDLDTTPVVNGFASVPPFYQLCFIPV
Procedure: as §1

CYP 2C9 = CYP 2C9 (Homo sapiens (Human), UniProt P11712); type: in vitro ADME; conditions: microsomes, 10 min
Chain of CYP 2C9 (P11712 whole entry): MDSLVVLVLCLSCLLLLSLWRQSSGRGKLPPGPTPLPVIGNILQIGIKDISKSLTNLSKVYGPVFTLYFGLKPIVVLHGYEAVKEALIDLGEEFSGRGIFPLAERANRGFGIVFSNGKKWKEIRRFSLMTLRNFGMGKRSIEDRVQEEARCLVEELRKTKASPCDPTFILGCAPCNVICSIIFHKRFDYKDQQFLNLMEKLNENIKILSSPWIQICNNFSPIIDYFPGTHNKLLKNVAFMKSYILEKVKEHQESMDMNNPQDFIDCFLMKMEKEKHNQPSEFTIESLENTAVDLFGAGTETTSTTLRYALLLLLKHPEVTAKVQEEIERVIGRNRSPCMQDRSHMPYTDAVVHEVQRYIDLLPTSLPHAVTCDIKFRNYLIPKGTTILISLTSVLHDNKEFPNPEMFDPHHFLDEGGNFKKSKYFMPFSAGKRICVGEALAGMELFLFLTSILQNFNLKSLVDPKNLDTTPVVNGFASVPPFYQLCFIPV
Procedure: as §1

CYP 2D6 = CYP 2D6 (Homo sapiens (Human), UniProt P10635); type: in vitro ADME; conditions: microsomes, 10 min
Chain of CYP 2D6 (P10635 whole entry): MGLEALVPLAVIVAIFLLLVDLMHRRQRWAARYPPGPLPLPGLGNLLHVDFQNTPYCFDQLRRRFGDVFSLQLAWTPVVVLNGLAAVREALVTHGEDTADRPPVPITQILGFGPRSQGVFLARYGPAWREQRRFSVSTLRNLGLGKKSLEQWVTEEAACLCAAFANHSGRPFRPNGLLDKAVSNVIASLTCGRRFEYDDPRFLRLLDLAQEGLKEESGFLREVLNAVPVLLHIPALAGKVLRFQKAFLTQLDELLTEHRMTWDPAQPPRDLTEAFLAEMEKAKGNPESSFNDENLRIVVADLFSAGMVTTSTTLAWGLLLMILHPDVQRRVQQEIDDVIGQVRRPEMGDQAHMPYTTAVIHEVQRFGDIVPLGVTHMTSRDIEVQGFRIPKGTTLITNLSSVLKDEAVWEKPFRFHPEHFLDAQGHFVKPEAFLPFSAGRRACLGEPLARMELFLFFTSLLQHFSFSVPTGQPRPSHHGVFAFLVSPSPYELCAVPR
Procedure: as §1

CYP 3A4 = CYP 3A4 (Homo sapiens (Human), UniProt P08684); type: in vitro ADME; conditions: microsomes, 10 min
Chain of CYP 3A4 (P08684 whole entry): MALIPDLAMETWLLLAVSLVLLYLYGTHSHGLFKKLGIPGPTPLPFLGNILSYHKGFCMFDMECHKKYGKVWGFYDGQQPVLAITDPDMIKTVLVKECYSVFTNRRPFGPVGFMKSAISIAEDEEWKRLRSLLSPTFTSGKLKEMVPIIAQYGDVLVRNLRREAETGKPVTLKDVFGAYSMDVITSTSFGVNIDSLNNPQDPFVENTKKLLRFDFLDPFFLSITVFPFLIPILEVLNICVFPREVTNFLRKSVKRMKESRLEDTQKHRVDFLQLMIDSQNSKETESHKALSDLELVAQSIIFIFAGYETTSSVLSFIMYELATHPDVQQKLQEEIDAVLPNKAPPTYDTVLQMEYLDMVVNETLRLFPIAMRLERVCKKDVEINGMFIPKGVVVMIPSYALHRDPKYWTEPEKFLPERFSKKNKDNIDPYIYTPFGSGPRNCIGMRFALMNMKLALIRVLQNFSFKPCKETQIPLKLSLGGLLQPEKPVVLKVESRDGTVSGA
Procedure: as §1

Compound: CC(C)(C)[C@@H](N)C(=O)N[C@H](Cc1csc2ccccc12)C(=O)N[C@H](Cc1c[nH]c2ccccc12)C(=O)N[C@@H](Cc1ccccc1)C(=O)N[C@H](CCCCN)C(N)=O [Compound 47] (H-[dTle][dBta][dW]F[dK]-NH2)
- IC50 (GHSR-1a): 0.0107 µM
- IC50 (CYP1A2): > 50 µM
- IC50 (CYP 2C19): > 50 µM
- IC50 (CYP 2C9): > 50 µM
- IC50 (CYP 2D6): > 50 µM
- IC50 (CYP 3A4): > 50 µM

Compound: CC(C)(C)[C@H](N)C(=O)N[C@H](Cc1csc2ccccc12)C(=O)N[C@H](Cc1c[nH]c2ccccc12)C(=O)N[C@@H](Cc1ccccc1)C(=O)N[C@H](CCCCN)C(N)=O [Compound 48] (H-[Tle][dBta][dW]F[dK]-NH2)
- IC50 (GHSR-1a): 0.0121 µM
- IC50 (CYP1A2): > 50 µM
- IC50 (CYP 2C19): > 50 µM
- IC50 (CYP 2C9): > 50 µM
- IC50 (CYP 2D6): > 50 µM
- IC50 (CYP 3A4): > 50 µM

Compound: NCCCC[C@@H](NC(=O)[C@H](Cc1ccccc1)NC(=O)[C@@H](Cc1c[nH]c2ccccc12)NC(=O)[C@@H](Cc1csc2ccccc12)NC(=O)[C@@H]1CCC[C@@H]1N)C(N)=O [Compound 51] (X1-[dBta][dW]F[dK]-NH2)
- IC50 (GHSR-1a): 0.0032 µM
- IC50 (CYP1A2): > 50 µM
- IC50 (CYP 2C19): > 50 µM
- IC50 (CYP 2C9): > 50 µM
- IC50 (CYP 2D6): > 50 µM
- IC50 (CYP 3A4): > 50 µM

Compound: NCCCC[C@@H](NC(=O)[C@H](Cc1ccccc1)NC(=O)[C@@H](Cc1c[nH]c2ccccc12)NC(=O)[C@@H](Cc1csc2ccccc12)NC(=O)C1(CN)CCC1)C(N)=O [Compound 52] (X3-[dBta][dW]F[dK]-NH2)
- IC50 (GHSR-1a): 0.0038 µM
- IC50 (CYP1A2): > 50 µM
- IC50 (CYP 2C19): > 50 µM
- IC50 (CYP 2C9): > 50 µM
- IC50 (CYP 2D6): > 50 µM
- IC50 (CYP 3A4): > 50 µM

Compound: NCCCC[C@@H](NC(=O)[C@H](Cc1ccccc1)NC(=O)[C@@H](Cc1c[nH]c2ccccc12)NC(=O)[C@@H](Cc1csc2ccccc12)NC(=O)C1CNC1)C(N)=O [Compound 53] (Azetidine3carboxylic-[dBta][dW]F[dK]-NH2)
- IC50 (GHSR-1a): 0.0112 µM
- IC50 (CYP1A2): > 50 µM
- IC50 (CYP 2C19): > 50 µM
- IC50 (CYP 2C9): > 50 µM
- IC50 (CYP 2D6): > 50 µM
- IC50 (CYP 3A4): > 50 µM

Compound: NCCCC[C@@H](NC(=O)[C@H](Cc1ccccc1)NC(=O)[C@@H](Cc1c[nH]c2ccccc12)NC(=O)[C@@H](Cc1csc2ccccc12)NC(=O)C1(N)COC1)C(N)=O [Compound 54] (H-[Ac4c(3-oxa)][dBta][dW]F[dK]-NH2)
- IC50 (GHSR-1a): 0.0139 µM
- IC50 (CYP1A2): > 50 µM
- IC50 (CYP 2C19): > 50 µM
- IC50 (CYP 2C9): > 50 µM
- IC50 (CYP 2D6): > 50 µM
- IC50 (CYP 3A4): > 50 µM

Compound: NCCCC[C@@H](NC(=O)[C@H](Cc1ccccc1)NC(=O)[C@@H](Cc1c[nH]c2ccccc12)NC(=O)[C@@H](Cc1csc2ccccc12)NC(=O)[C@H]1CCNC1)C(N)=O [Compound 56] ({Pyrrolidine3carbonyl(3S)}-[dBta][dW]F[dK]-NH2)
- IC50 (GHSR-1a): 0.0055 µM
- IC50 (CYP1A2): > 50 µM
- IC50 (CYP 2C19): > 50 µM
- IC50 (CYP 2C9): > 50 µM
- IC50 (CYP 2D6): > 50 µM
- IC50 (CYP 3A4): > 50 µM

Compound: NC(=O)[C@H](Cc1ccccc1)NC(=O)[C@@H](Cc1c[nH]c2ccccc12)NC(=O)[C@@H](Cc1csc2ccccc12)NC(=O)[C@@H]1CCC[C@@H]1N [Compound 71]
- IC50 (GHSR-1a): 0.0033 µM
- IC50 at 10 min (CYP1A2): > 50 µM
- IC50 (CYP 2C19): > 50 µM
- IC50 (CYP 2C9): > 50 µM
- IC50 (CYP 2D6): > 50 µM
- IC50 (CYP 3A4): > 50 µM

Compound: NCC1(C(=O)N[C@H](Cc2csc3ccccc23)C(=O)N[C@H](Cc2c[nH]c3ccccc23)C(=O)N[C@@H](Cc2ccccc2)C(N)=O)CCC1 [Compound 72]
- IC50 (GHSR-1a): 0.004 µM
- IC50 at 10 min (CYP1A2): > 50 µM
- IC50 (CYP 2C19): > 50 µM
- IC50 (CYP 2C9): > 50 µM
- IC50 (CYP 2D6): > 50 µM
- IC50 (CYP 3A4): > 50 µM

Compound: NC(=O)[C@H](Cc1ccccc1)NC(=O)[C@@H](Cc1c[nH]c2ccccc12)NC(=O)[C@@H](Cc1csc2ccccc12)NC(=O)[C@H]1CCNC1 [Compound 76]
- IC50 (GHSR-1a): 0.0039 µM
- IC50 at 10 min (CYP1A2): > 50 µM
- IC50 (CYP 2C19): > 50 µM
- IC50 (CYP 2C9): > 50 µM
- IC50 (CYP 2D6): > 50 µM
- IC50 (CYP 3A4): > 50 µM

Compound: NC(=O)[C@H](Cc1ccccc1)NC(=O)[C@@H](Cc1c[nH]c2ccccc12)NC(=O)[C@@H](Cc1csc2ccccc12)NC(=O)[C@H]1CNCCO1 [Compound 77]
- IC50 (GHSR-1a): 0.0136 µM
- IC50 at 10 min (CYP1A2): > 50 µM
- IC50 (CYP 2C19): > 50 µM
- IC50 (CYP 2C9): > 50 µM
- IC50 (CYP 2D6): > 50 µM
- IC50 (CYP 3A4): > 50 µM

Compound: NC(=O)[C@H](Cc1ccccc1)NC(=O)[C@@H](Cc1c[nH]c2ccccc12)NC(=O)[C@@H](Cc1csc2ccccc12)NC(=O)[C@@]12CNC[C@@H]1C2 [Compound 80]
- IC50 (GHSR-1a): 0.0351 µM
- IC50 at 10 min (CYP1A2): > 50 µM
- IC50 (CYP 2C19): > 50 µM
- IC50 (CYP 2C9): > 50 µM
- IC50 (CYP 2D6): > 50 µM
- IC50 (CYP 3A4): > 50 µM

— US20240158438A1, “POLYPEPTIDE COMPOUND AND APPLICATION THEREOF” (CHENGDU SINTANOVO BIOTECHNOLOGY CO., LTD., priority 2021, published 2024)
